Measurements from patent US20230026259A1, “CA2 COMPOSITIONS AND METHODS FOR TUNABLE REGULATION” (Obsidian Therapeutics, Inc., priority 2019, published 2023).

Columns and labels:
Assay type in all cases: cell-based
[1] = tested on: human primary T cells; test: IL15-dependent expansion: T cell numbers and CD4/CD8 ratio by flow cytometry
Protocol: (§1) To test IL15-dependent expansion, beads were removed on day 10 and cells were washed. […] The T cell numbers (Table 30) and the change in CD4/CD8 ratio (Table 31) were determined by flow cytometry.

[2] = tested on: human primary T cells; test: Expression of IL15 chimeric constructs by flow cytometry (percent IL15 positive cells); details: for percentage of IL15 positive cells: human primary T cells, day 6, no ligand stated
From the text: In vitro activity of IL15 chimeric constructs OT-002019 ((Met; CD34 (aa 1-32 of WT, M1G, S32A); IL15 (30-162 of WT); Linker ((GS)15); CD8a Hinge and Transmembrane Domain; Linker (GS); stop), amino acid SEQ ID NO: 210876, nucleic acid SEQ ID NO: 210877) and OT-002090 ((Ig Kappa light chain leader; IL15 (49-162 of WT); Linker ((GS)15); B7-1 Hinge, Transmembrane Domain and Tail; Linker (GS); stop), amino acid SEQ ID NO: 210878, nucleic acid SEQ ID NO: 210879) and CA2 regulated IL15 chimeric construct (OT-002094) were tested in human primary T cells. Human primary T cells were transduced with lentivirus 24 hours after activation with CD3/CD28 beads. Cells were expanded for 10 days. […] The percentage of IL15 positive cells obtained for each treatment group is as follows (a) OT-002019: 82.3% (b) OT-002090: 43.6% (c) OT-002094 with DMSO: 0.7% (d) OT-002094 with 10 μM Acz: 27.9% and (e) untransduced (UT): 0.3%.
as §1

[3] = tested on: NIH3T3 cells; test: Destabilization mutant screening of human CA2 linked to GFP, ligand response by FACS (Valdecoxib, Celecoxib, Acetazolamide)
Protocol: To identify destabilizing mutations of human CA2 that are stabilized upon ligand binding to CA2, two rounds of mutant screening were performed, using a lentivirus CA2 mutant library provided by Genscript (China). These methods were used to generate a library of mutant polypeptides using mutagenesis primers and error prone PCR. Lentiviral vectors expressing the template, wild-type human CA2 operably linked to GFP(OT-001986) was also provided by Genscript along with the CA2 mutant library. The library was packaged into lentivirus, transduced into NIH3T3 cells at a multiplicity of infection (MOI) of approximately 0.3 and select stable cell pools were derived by selecting with selection marker puromycin.
To identify cell pools containing destabilizing mutants of CA2 that are stabilizing when CA2 is bound to its corresponding ligand, cells were sorted using FACS. In the initial round, the bottom 15% of population that was GFP negative in the absence of ligand was selected. Cells were expanded and then treated with 10 μM Celecoxib for 24 hours and harvested for cell sorting. The top 11% GFP positive cells which were also responsive to ligand treatment compared to untreated were collected. Celecoxib was removed from the cultures and replaced with DMSO. […] Genomic DNA was isolated and amplified CA2 mutants were reintroduced to the lentiviral vectors where CA2 was operably linked to GFP. The constructs were transduced into NIH3T3 cells with lentivirus vectors for each clone. The cells were treated with 10 μM Valdecoxib or 10 μM Celecoxib for 24 hours and analyzed by FACS. […] In Table 25, the Construct ID (OT-XXXXXX) refers to the construct which includes the referenced CA2 mutant and the Library ID (LibCXXXXXX) refers to the CA2 mutant itself.
The response of NIH3T3 cells to varying doses of Valdecoxib or Celecoxib for 24 hours was measured and analyzed by FACS.
Clones treated with different ligands were compared to examine the behavior of each mutant with the ligands.

[4] = tested on: NIH3T3 cells; test: Immunoblotting of cell lysates for GFP after ligand treatment; details: NIH3T3 cells, 0.3, 1, 3, 10 or 30 μM Acetazolamide, 24 hours
Protocol: The protein expression in the presence of ligand was measured by immunoblotting the cell lysates for GFP.
The protein expression in the presence of ligand was measured by immunoblotting cell lysates for GFP.

[5] = NIH3T3, 10 μM Celecoxib vs DMSO
[6] = NIH3T3, 10 μM Valdecoxib vs DMSO
[7] = NIH3T3, Celecoxib μM (concentration not given)
[8] = NIH3T3, Valdecoxib μM (concentration not given)
[9] = day 0 in culture, untransduced T cells + exogenous IL15 1 ng/ml
[10] = day 3 in culture, untransduced T cells + exogenous IL15 1 ng/ml
[11] = day 7 in culture, untransduced T cells + exogenous IL15 1 ng/ml
[12] = day 10 in culture, untransduced T cells + exogenous IL15 1 ng/ml

## (Ig Kappa light chain leader; IL15 (49-162 of WT); Linker ((GS)15); B7-1 Hinge, Transmembrane Domain and Tail; Linker (GS); stop) [OT-002090]
[1]; day 0 in culture, media alone
  CD4/CD8 Ratio: 3.79
  T Cell Numbers: 1.0E+06
[1]; day 3 in culture, media alone
  CD4/CD8 Ratio: 0.66
  T Cell Numbers: 1.3E+06
[1]; day 7 in culture, media alone
  CD4/CD8 Ratio: 0.09
  T Cell Numbers: 4.1E+06
[1]; day 10 in culture, media alone
  CD4/CD8 Ratio: 0.04
  T Cell Numbers: 1.0E+07
[2]; day 0 in culture, media alone
  Percent of cells IL15 positive: 30%
[2]; day 3 in culture, media alone
  Percent of cells IL15 positive: 40%
[2]; day 7 in culture, media alone
  Percent of cells IL15 positive: 38%
[2]; day 10 in culture, media alone
  Percent of cells IL15 positive: 16%
[2]
  percentage of IL15 positive cells: 43.6%

## (Met; CD34 (aa 1-32 of WT, M1G, S32A); IL15 (30-162 of WT); Linker ((GS)15); CD8a Hinge and Transmembrane Domain; Linker (GS); stop) [OT-002019]
[1]; day 0 in culture, 3 uM ACZ
  CD4/CD8 Ratio: 2.51
  T Cell Numbers: 1.0E+06
[1]; day 0 in culture, 10 uM ACZ
  CD4/CD8 Ratio: 2.51
  T Cell Numbers: 1.0E+06
[1]; day 0 in culture, media alone
  CD4/CD8 Ratio: 2.51
  T Cell Numbers: 1.0E+06
[1]; day 3 in culture, 3 uM ACZ
  CD4/CD8 Ratio: 0.46
  T Cell Numbers: 1.7E+06
[1]; day 3 in culture, 10 uM ACZ
  CD4/CD8 Ratio: 0.47
  T Cell Numbers: 1.7E+06
[1]; day 3 in culture, media alone
  CD4/CD8 Ratio: 0.45
  T Cell Numbers: 2.0E+06
[1]; day 7 in culture, 3 uM ACZ
  CD4/CD8 Ratio: 0.06
  T Cell Numbers: 5.7E+06
[1]; day 7 in culture, 10 uM ACZ
  CD4/CD8 Ratio: 0.07
  T Cell Numbers: 5.6E+06
[1]; day 7 in culture, media alone
  CD4/CD8 Ratio: 0.06
  T Cell Numbers: 6.7E+06
[1]; day 10 in culture, 3 uM ACZ
  CD4/CD8 Ratio: 0.02
  T Cell Numbers: 1.7E+07
[1]; day 10 in culture, 10 uM ACZ
  CD4/CD8 Ratio: 0.03
  T Cell Numbers: 1.6E+07
[1]; day 10 in culture, media alone
  CD4/CD8 Ratio: 0.02
  T Cell Numbers: 2.1E+07
[2]; day 0 in culture, 3 uM ACZ
  Percent of cells IL15 positive: 75%
[2]; day 0 in culture, 10 uM ACZ
  Percent of cells IL15 positive: 75%
[2]; day 0 in culture, media alone
  Percent of cells IL15 positive: 75%
[2]; day 3 in culture, 3 uM ACZ
  Percent of cells IL15 positive: 82%
[2]; day 3 in culture, 10 uM ACZ
  Percent of cells IL15 positive: 82%
[2]; day 3 in culture, media alone
  Percent of cells IL15 positive: 82%
[2]; day 7 in culture, 3 uM ACZ
  Percent of cells IL15 positive: 84%
[2]; day 7 in culture, 10 uM ACZ
  Percent of cells IL15 positive: 85%
[2]; day 7 in culture, media alone
  Percent of cells IL15 positive: 84%
[2]; day 10 in culture, 3 uM ACZ
  Percent of cells IL15 positive: 78%
[2]; day 10 in culture, 10 uM ACZ
  Percent of cells IL15 positive: 79%
[2]; day 10 in culture, media alone
  Percent of cells IL15 positive: 76%
[2]
  percentage of IL15 positive cells: 82.3%

## CA2 (aa 2-260 of WT, G12R) [LibC000211]
[3]; NIH3T3, 10 μM Celecoxib
  Median PE: 20800
[3]; [5]
  SR (stabilization ratio): 1.6
[3]; NIH3T3, 10 μM Valdecoxib
  Median PE: 19800
[3]; [6]
  SR (stabilization ratio): 1.52
[3]; [7]
  MFI, comparative analysis, normalized to parental day 1: 16550.54
[3]; NIH3T3, DMSO
  MFI, comparative analysis: 10344.09
  Median PE: 13000
[3]; NIH3T3, DMSO (reference)
  SR (stabilization ratio): 1
[3]; [8]
  MFI, comparative analysis, normalized to parental day 1: 15754.84

## CA2 (aa 2-260 of WT, H17D, P30S, G81V, K132R, S151I, A152D, A173G, W191*) [LibC000191]
[3]; NIH3T3, 10 μM Celecoxib
  Median PE: 173
[3]; [5]
  SR (stabilization ratio): 1.08
[3]; NIH3T3, 10 μM Valdecoxib
  Median PE: 177
[3]; [6]
  SR (stabilization ratio): 1.11
[3]; NIH3T3, DMSO
  Median PE: 160
[3]; NIH3T3, DMSO (reference)
  SR (stabilization ratio): 1

## CA2 (aa 2-260 of WT, I59N, G102R) [LibC000184]
[4]
  GFP protein expression by immunoblot, Acetazolamide: stabilization of GFP with increasing ligand doses
[3]; NIH3T3, Acetazolamide 10 μM
  MFI, comparative analysis: 9295
[3]; NIH3T3, Acetazolamide 30 μM
  MFI, comparative analysis: 10900
[3]; [7]
  MFI, comparative analysis, normalized to parental day 1: 4660.217
[3]; NIH3T3, DMSO
  MFI, comparative analysis: 380
[3]; [8]
  MFI, comparative analysis, normalized to parental day 1: 3478.892

## CA2 (aa 2-260 of WT, L47R) [LibC000220]
[3]; NIH3T3, 10 μM Celecoxib
  Median PE: 384
[3]; [5]
  SR (stabilization ratio): 1.2
[3]; NIH3T3, 10 μM Valdecoxib
  Median PE: 408
[3]; [6]
  SR (stabilization ratio): 1.31
[3]; NIH3T3, DMSO
  Median PE: 311
[3]; NIH3T3, DMSO (reference)
  SR (stabilization ratio): 1

## CA2 (aa 2-260 of WT, N61R, K80M, K212N, N231T, L250P) [LibC000198]
[3]; NIH3T3, 10 μM Celecoxib
  Median PE: 535
[3]; [5]
  SR (stabilization ratio): 1.95
[3]; NIH3T3, 10 μM Valdecoxib
  Median PE: 552
[3]; [6]
  SR (stabilization ratio): 2
[3]; NIH3T3, DMSO
  Median PE: 275
[3]; NIH3T3, DMSO (reference)
  SR (stabilization ratio): 1

## CA2 (aa 2-260 of WT, S73F) [LibC000212]
[3]; NIH3T3, 10 μM Celecoxib
  Median PE: 30700
[3]; [5]
  SR (stabilization ratio): 1.02
[3]; NIH3T3, 10 μM Valdecoxib
  Median PE: 30700
[3]; [6]
  SR (stabilization ratio): 1.02
[3]; NIH3T3, DMSO
  Median PE: 30100
[3]; NIH3T3, DMSO (reference)
  SR (stabilization ratio): 1

## CA2 (aa 2-260 of WT, T35I, Y114H, P154L, D161V, P200A, F225L, E233D, W244*) [LibC000188]
[3]; NIH3T3, 10 μM Celecoxib
  Median PE: 225
[3]; [5]
  SR (stabilization ratio): 1.09
[3]; NIH3T3, 10 μM Valdecoxib
  Median PE: 228
[3]; [6]
  SR (stabilization ratio): 1.11
[3]; NIH3T3, DMSO
  Median PE: 206
[3]; NIH3T3, DMSO (reference)
  SR (stabilization ratio): 1

## IL15
[1]; [9]
  CD4/CD8 Ratio: 5.64
  T Cell Numbers: 1.0E+06
[1]; [10]
  CD4/CD8 Ratio: 2.57
  T Cell Numbers: 3.2E+06
[1]; [11]
  CD4/CD8 Ratio: 0.64
  T Cell Numbers: 5.4E+06
[1]; [12]
  CD4/CD8 Ratio: 0.28
  T Cell Numbers: 1.2E+07
[2]; [9]
  Percent of cells IL15 positive: 0%
[2]; [10]
  Percent of cells IL15 positive: 1%
[2]; [11]
  Percent of cells IL15 positive: 0%
[2]; [12]
  Percent of cells IL15 positive: 1%
